# Test results: paper PMC10974290, “Biocatalytic Synthesis of Coumarin S-Glycosides: Towards Non-Cytotoxic Probes for Biomedical Imaging and Sensing” (Molecules, 2024)
# Key:
# [1] = system: SK-MEL-28 (melanoma skin cancer); assay: MTT cell proliferation assay, SK-MEL-28; assay type: cell-based; conditions: Homo sapiens, 72 h incubation, 95% confidence interval in parentheses
# Procedure: (§1) To use these S-glycosidic compounds in cellulo, the potential impact of the glycosidic linkage nature on the anticancer activity was assessed. The S-glycoside derivatives and the 7-MC were tested against four human cancer cell lines and a healthy one, namely A549 (lung carcinoma), HS-683 (glioma cancer), MCF-7 (breast adenocarcinoma), SK-MEL-28 (melanoma skin cancer), and HaCaT (keratinocyte normal skin), using MTT (thiazolyl blue tetrazolium bromide, Sigma-Aldrich, St. Louis, MO, USA) assay, as previously described in the literature. The selected reference drugs were 5-fluorouracil (5-FU) and etoposide.
# (§2) Cell proliferation of five distinct cell lines was evaluated using the colorimetric MTT (thiazolyl blue tetrazolium bromide, Sigma) assay. Human keratinocyte normal skin HaCaT was cultivated in DMEM supplemented with 4.5 g/L glucose, 2 mM L-glutamine, and 10% FBS. Cancer cell lines and their respective growth media were obtained from CLS Cell Line Service GmbH (Eppelheim, Germany). Specifically, human skin melanoma SK-MEL-28 and human brain glioma HS683 were cultivated in DMEM with identical supplements as HaCaT cells. The human lung carcinoma cell line A-549 was grown in DMEM/Ham’s F12 (1:1) medium supplemented with 2 mM L-glutamine and 5% FBS. Additionally, human breast adenoma carcinoma MCF-7 cells were sustained in EMEM supplemented with 2 mM L-glutamine, sodium pyruvate, non-essential amino acids (NEAAs), 10 µg/mL insulin human, and 10% FBS. The MTT assay relies on the reduction of the yellow product thiazolyl blue tetrazolium bromide (MTT) to formazan, a purple-blue product, by mitochondrial dehydrogenases in metabolically active cells. The number of living cells after incubation in the presence (or absence, control) of the tested molecules is directly proportional to the blue color, which was measured by spectrophotometry. To perform the assay, cells were initially seeded at a density of 2500 cells/mL in 96-well culture plates (Nunc™ Edge 2.0, Fisher) and allowed to adhere and proliferate over a 24-hour incubation period. Following this, the cells were treated with various concentrations of the tested compounds, which were previously prepared as serial dilutions and dissolved in 0.1% DMSO. These stable solutions guarantee the consistency of experimental conditions over extended periods. Each concentration of the tested compounds underwent triplicate testing (n = 3), and cells were subsequently incubated for 72 h to allow for thorough evaluation. Following this incubation period, MTT reagent (5 mg/mL solution in PBS) was introduced to each well (10% v/v), and cells were further incubated for 4 h. Then, the culture medium was carefully removed, and the resulting blue formazan crystals were dissolved in 100 µL of 100% DMSO. Absorbance readings were taken at 540 nm, referencing a wavelength of 620 nm, using a spectrophotometer. In determining the IC50, the absorbance of serial dilutions of each cell line, treated under identical conditions but without the presence of the tested compounds, was measured.
# [2] = UV-visible absorbance spectroscopy; assay type: physicochemical; conditions: 0.1 mM; for emax (molar absorption coefficient): 7-MC + DTT 10 mM; for Absorbance ε (molar absorption coefficient) / Absorbance λmax abs: 7-MC in presence of 10 mM DTT
# Procedure: Subsequently, the analysis was carried out under two distinct conditions: firstly, in DMF, at a final concentration of 0.1 mM; and secondly, in a mixture PBS:DMF (99:1%), at the same final concentration of 0.1 mM. These two experimental setups provided valuable insights into the spectral characteristics of the compounds in both a pure organic solvent and a solvent system closely resembling physiological conditions. The maxima absorption wavelengths are compiled in Table 3. These bands were attributed to transitions within the benzene and pyrone moieties, considered together as a single chromophore. […] Similarly, 7-MC and S-1 to S-6 compounds also absorb in this UV range (λmax = 328–330 nm). […] In the organic solvent, these values are found to be higher compared to those calculated for 4-MUB and 7-MC. Conversely, in PBS, the extinction coefficients for S-glycosides are lower compared to the parent thiol 7-MC. This highlights the profound impact of glycosylation on absorption properties, as well as the importance of solvent choice.
# Both absorbance and fluorescence spectra were measured on a Tecan […] M PLEX 200 Pro plate reader equipped with monochromator allowing a scan from 230 to 1000 nm. All synthesized molecules were initially dissolved in 10 mM DMF and subsequently diluted in freshly prepared PBS (pH = 7.4) to achieve a final concentration of 0.1 mM. The solutions were then transferred to a Corning (Corning, NY, USA) UV-transparent 96-well plate. Absorbance spectra were recorded from 230 to 800 nm. Emission fluorescence spectra were recorded from 320 to 800 nm, under excitation at 280 nm. Excitation fluorescence spectra were recorded from 230 to 380 nm for an emission at 420 nm. All spectra were recorded with a wavelength step size of 2 nm. Data processing was performed with Excel software 2016. Fluorescence spectra are presented as normalized spectra ranging from 0 to 1. The relative quantum yields were calculated according to Equation (1):(1) ΦT=(AR/AT)×(FT/FR)×[…]×ΦR where Φ is the fluorescence quantum yield, A is the absorbance at the excitation wavelength, F is the area under the corrected emission curve, and n is the refractive index of the solvent for the test compound (T) and the reference (R). The 4-MUB value in DMF was used as the reference. The LOD (resp. LOQ) values were determined as the minimal concentration of product S-3 required to yield a fluorescence that was twice greater than (respectively, 5-times that of) the fluorescence noise on a sample containing PBS, using an excitation wavelength of 280 nm and an emission wavelength of 386 nm (Figure S44).
# HS683 (brain glioma) = assay: MTT cell proliferation assay, HS683; assay type: cell-based; conditions: Homo sapiens, Hs 683, 72 h incubation, 95% confidence interval in parentheses
# Procedure: as §1, §2
# [3] = system: HaCaT (keratinocyte normal skin); assay: MTT cell proliferation assay, HaCaT; assay type: cell-based; conditions: Homo sapiens, 72 h incubation, 95% confidence interval in parentheses
# Procedure: as §1, §2
Structure (SMILES),IC50 [1] [µM],emax (molar absorption coefficient) ([2]; DMF),Absorbance ε (molar absorption coefficient) ([2]; DMF),Absorbance λmax abs ([2]; DMF) [nm],emax (molar absorption coefficient) ([2]; PBS 1x (pH = 7.4)),"Absorbance ε (molar absorption coefficient) ([2]; PBS (PBS:DMF 99:1, pH 7.4))","Absorbance λmax abs ([2]; PBS (PBS:DMF 99:1, pH 7.4)) [nm]",IC50 (HS683 (brain glioma)) [µM],IC50 [3] [µM]
"Cc1cc(=O)oc2cc(S)ccc12 [Compound 7-MC, 7-mercapto-4-methylcoumarin, reference compound]",306,"10409,59 cm-1 M-1",10.4 10^3 M^−1 cm^−1,328,"28929,88854 cm-1 M-1",28.9 10^3 M^−1 cm^−1,368,–,–
"Cc1cc(=O)oc2cc(S[C@@H]3O[C@H](C(=O)O)[C@@H](O)[C@H](O)[C@H]3O)ccc12 [Compound S-1, 4-Methylumbellifer-7-yl 1-thio-β-D-glucopyranosiduronic acid]",> 1000,"26660,51579 cm-1 M-1",26.7 10^3 M^−1 cm^−1,330,"23328,41338 cm-1 M-1",23.3 10^3 M^−1 cm^−1,326,> 1000,> 1000
"Cc1cc(=O)oc2cc(S[C@@H]3OC[C@@H](O)[C@H](O)[C@H]3O)ccc12 [Compound S-2, 4-Methylumbellifer-7-yl 1-thio-β-D-xylopyranoside]",228,–,19.5 10^3 M^−1 cm^−1,330,"26044,28033 cm-1 M-1",26.0 10^3 M^−1 cm^−1,324,275,162
"Cc1cc(=O)oc2cc(S[C@@H]3O[C@H](CO)[C@@H](O)[C@H](O)[C@H]3O)ccc12 [Compound S-3, 4-Methylumbellifer-7-yl 1-thio-β-D-glucopyranoside]",> 1000,"18634,68658 cm-1 M-1",18.6 10^3 M^−1 cm^−1,330,"20778,59706 cm-1 M-1",20.8 10^3 M^−1 cm^−1,326,> 1000,> 1000
"Cc1cc(=O)oc2cc(S[C@@H]3O[C@H](CO)[C@H](O)[C@H](O)[C@H]3O)ccc12 [Compound S-4, 4-Methylumbellifer-7-yl 1-thio-β-D-galactopyranoside]",> 1000,"22265,68277 cm-1 M-1",22.3 10^3 M^−1 cm^−1,330,"18357,93367 cm-1 M-1",18.4 10^3 M^−1 cm^−1,326,> 1000,> 1000
"Cc1cc(=O)oc2cc(S[C@@H]3O[C@H](C)[C@H](O)[C@H](O)[C@H]3O)ccc12 [Compound S-5, 4-Methylumbellifer-7-yl 1-thio-β-D-fucopyranoside]",> 1000,"22294,93104 cm-1 M-1",22.3 10^3 M^−1 cm^−1,330,–,10.4 10^3 M^−1 cm^−1,326,> 1000,> 1000
"Cc1cc(=O)oc2cc(S[C@H]3O[C@H](CO)[C@H](O)[C@H](O)[C@H]3O)ccc12 [Compound S-6, 4-Methylumbellifer-7-yl 1-thio-α-D-galactopyranoside]",> 1000,"22265,68277 cm-1 M-1",22.3 10^3 M^−1 cm^−1,330,"19811,80752 cm-1 M-1",19.8 10^3 M^−1 cm^−1,326,> 1000,> 1000
